# US9221814B2, “Heterocyclic guanidine F1F0-atpase inhibitors and therapeutic uses thereof” (Lycera Corporation, priority 2012, dated 2015)
# Like-named read-outs stand apart in the source and are kept apart here.
# Key:
# [1] = molecular target: T1, F1F0-ATPase (Bos taurus, UniProt P13621); assay: Inhibition of F1F0-ATPase activity in synthesizing ATP (ATP synthesis inhibition); format: biochemical; conditions: detection limit IC50=16 μM, read-out: ATP Syn IC50
# T1 construct: from tissue
# Procedure: (§1) Exemplary compounds described in above Examples were tested for activity against F1F0-ATPase by measuring the ability of the compounds to inhibit ATP synthesis. In addition, the compounds were assessed for cytotoxicity in Ramos cells. Inhibition of F1F0-ATPase activity in synthesizing ATP and cytotoxicity in Ramos cells were measured according to the procedures described in K. M. Johnson et al. Chemistry & Biology 2005, 12, 485-496.
# [2] = system: Ramos cells; assay: Cytotoxicity in Ramos cells; format: cell-based; conditions: detection limit EC50=16 μM, read-out: Ramos Cell EC50
# Procedure: as §1
SMILES,IC50 [1] [µM],EC50 [2] [µM],EC50 ([2]; Homo sapiens) [µM]
CSc1ccccc1N/C(=N\C(=O)c1cn(C)nc1C(F)(F)F)Nc1cc(-c2ccc(O)cc2F)n[nH]1 [Compound A-6],5 to 16,< 5,–
CCOC(=O)NC1CCC(N/C(=N/C(=O)c2cn(C)nc2C(F)(F)F)NCc2ccc(Cl)c(F)c2)CC1 (stereo not shown) [Compound A-218],> 16,–,5 to 16
Cc1cc(C(=O)/N=C(\Nc2cc(-c3ccc(F)cc3)n[nH]2)NC(C)(C)C)c(C)o1 [Compound A-190],< 5,5 to 16,–
Cn1cc(C(=O)N=C(Nc2ccc(F)cc2)Nc2cc(-c3ccc(O)cc3F)n[nH]2)c(C(F)(F)F)n1 [Compound A-150],< 5,–,< 5
COC[C@H](C)N/C(=N/C(=O)c1cc(C(C)(C)C)nn1C)Nc1cc(-c2ccc(Cl)cc2)n[nH]1 [Compound A-76],< 5,< 5,–
CCOCC(C)N/C(=N/C(=O)c1nc(C)oc1C)Nc1cc(-c2ccc(F)cc2)n[nH]1 (stereo not shown) [Compound A-194],> 16,< 5,–
Cc1cc(C(=O)N=C(Nc2cc(-c3ccc(Cl)cc3)n[nH]2)NC(C)C)n(C)n1 [Compound A-64],< 5,–,5 to 16
CCOC(=O)NC1CCC(N/C(=N\C(=O)c2cc(C)oc2C(F)(F)F)Nc2cc(Cl)ccc2OC)CC1 (stereo not shown) [Compound A-215],< 5,–,5 to 16
Cn1cc(C(=O)/N=C(/Nc2ccc(F)c(F)c2)Nc2cc(-c3ccc(O)c(F)c3)n[nH]2)c(C(F)(F)F)n1 [Compound A-176],< 5,< 5,–
Cc1c(Cl)cccc1N/C(=N/C(=O)c1cn(C)nc1C(F)(F)F)Nc1cc(-c2ccc(O)c(F)c2)n[nH]1 [Compound A-184],< 5,< 5,–
Cn1cc(C(=O)/N=C(\Nc2cc(-c3ccc(O)c(F)c3)n[nH]2)Nc2ccccc2C(C)(C)C)c(C(F)(F)F)n1 [Compound A-167],< 5,< 5,–
CCOCCN/C(=N/C(=O)c1snnc1C)Nc1cc(-c2ccc(F)cc2)[nH]n1 [Compound A-121],> 16,> 16,–
Cc1nn(C)cc1C(=O)/N=C(\Nc1cc(F)cc(Cl)c1)Nc1cc(-c2ccc(O)cc2F)n[nH]1 [Compound A-2],5 to 16,> 16,–
CCOC(=O)NC1CCC(N/C(=N\C(=O)c2cc(C)oc2C(F)(F)F)Nc2cc(F)cc(Cl)c2)CC1 (stereo not shown) [Compound A-127],< 5,–,< 5
Cc1cc(C(=O)/N=C(\Nc2cc(-c3ccc(Cl)cc3)n[nH]2)NC(C)(C)C)n(C)n1 [Compound A-65],< 5,5 to 16,–
Cn1cc(C(=O)/N=C(/Nc2cc(F)cc(Cl)c2)Nc2cc(-c3ccc(O)c(F)c3)n[nH]2)c(C(F)(F)F)n1 [Compound A-189],< 5,< 5,–
CC(C)N/C(=N/C(=O)c1cn(C)nc1C(F)(F)F)Nc1cc(-c2ccc(O)cc2F)n[nH]1 [Compound A-149],> 16,> 16,–
COc1ccc(-c2cc(N/C(=N\C(=O)c3cn(C)nc3C(F)(F)F)Nc3ccccc3C(F)(F)F)[nH]n2)cc1F [Compound A-159],5 to 16,> 16,–
Cn1cc(C(=O)/N=C(/NCC(C)(C)C)Nc2n[nH]c3cncc(F)c23)c(C(F)(F)F)n1 [Compound A-144],5 to 16,> 16,–
COC[C@H](C)N/C(=N/C(=O)c1cc(C)oc1C(F)(F)F)Nc1cc(-c2cc(F)cc(F)c2)n[nH]1 [Compound A-118],< 5,5 to 16,–
CC(C)CN/C(=N\C(=O)c1cn(C)nc1C(F)(F)F)Nc1cc(-c2cc(F)cc(F)c2)n[nH]1 [Compound A-26],< 5,< 5,–
COC[C@H](C)N/C(=N/C(=O)c1cc(C)oc1C(F)(F)F)Nc1cc(C)n[nH]1 [Compound A-113],> 16,> 16,–
Cc1cc(Cl)ccc1N/C(=N/C(=O)c1cn(C)nc1C(F)(F)F)Nc1cc(-c2ccc(O)c(F)c2)n[nH]1 [Compound A-187],< 5,< 5,–
Cc1oncc1C(=O)/N=C(\Nc1cc(-c2ccc(F)cc2)n[nH]1)NC(C)(C)C [Compound A-188],< 5,< 5,–
CCC(C)N/C(=N/C(=O)c1nc(C)oc1C)Nc1cc(-c2ccc(F)cc2)n[nH]1 (stereo not shown) [Compound A-196],5 to 16,< 5,–

SMILES,IC50 [1] [µM],EC50 [2] [µM],EC50 ([2]; Homo sapiens) [µM]
Cc1cc(C(=O)/N=C(/NCc2ccccc2C)Nc2cc(-c3ccc(F)cc3)n[nH]2)no1 [Compound A-42],< 5,5 to 16,–
Cc1oncc1C(=O)/N=C(\Nc1cc(-c2ccc(Cl)cc2)[nH]n1)NC1CCCC1 [Compound A-89],> 16,> 16,–
Cn1cc(C(=O)/N=C(\Nc2n[nH]c3cc(F)ccc23)NC(C)(C)C)c(C(F)(F)F)n1 [Compound A-206],5 to 16,< 5,–
Cc1cc(C(=O)/N=C(/NCC(C)C)Nc2cc(-c3ccc(F)cc3)n[nH]2)c(C(F)(F)F)o1 [Compound A-203],< 5,< 5,–
Cc1cc(C(=O)/N=C(/Nc2cc(F)cc(Cl)c2)Nc2cc(C(F)(F)F)n[nH]2)on1 [Compound A-36],< 5,< 5,–
Cc1nc(C(=O)/N=C(\Nc2cc(-c3ccc(F)cc3)n[nH]2)NC(C)(C)C)c(C)o1 [Compound A-191],> 16,> 16,–
CCn1ccc(C(=O)/N=C(\Nc2cc(-c3ccc(F)cc3)n[nH]2)NC(C)(C)C)n1 [Compound A-60],< 5,5 to 16,–
Cc1oncc1C(=O)/N=C(\Nc1cc(-c2cc(F)cc(F)c2)n[nH]1)NC1(C)CCCC1 [Compound A-95],< 5,< 5,–
CC(C)(C)CN/C(=N/C(=O)c1ccc(Cl)s1)Nc1cc(C(F)(F)F)n[nH]1 [Compound A-208],< 5,< 5,–
Cn1nc(C(C)(C)C)cc1C(=O)N/C(=N/c1cccc(O)n1)Nc1cc(F)cc(Cl)c1 [Compound A-235],< 5,–,< 5
COc1ccc(-c2cc(N/C(=N\C(=O)c3cn(C)nc3C(F)(F)F)NC(C)C)n[nH]2)cc1F [Compound A-146],5 to 16,< 5,–
Cn1cc(C(=O)/N=C(/Nc2cc(-c3cc(F)cc(F)c3)n[nH]2)NC2CCCC2)c(C(F)(F)F)n1 [Compound A-27],< 5,< 5,–
Cc1cc(C(=O)/N=C(\Nc2cc(-c3ccc(F)cc3)n[nH]2)NC(C)C)no1 [Compound A-48],> 16,> 16,–
Cn1cc(C(=O)/N=C(/Nc2cc(F)cc(F)c2)Nc2cc(-c3ccc(O)c(F)c3)n[nH]2)c(C(F)(F)F)n1 [Compound A-174],< 5,< 5,–
CC(C)CN/C(=N/C(=O)c1cn(C)nc1C(F)(F)F)Nc1cc(-c2cc(O)ccc2F)n[nH]1 [Compound A-179],< 5,> 16,–
CC(C)c1cc(C(=O)/N=C(\Nc2cc(-c3ccc(F)cc3)n[nH]2)NC(C)(C)C)on1 [Compound A-61],< 5,< 5,–
COc1ccc(-c2cc(N/C(=N\C(=O)c3cn(C)nc3C(F)(F)F)NC3CCCC3)n[nH]2)cc1F [Compound A-129],5 to 16,< 5,–
COCC(C)NC(=NC(=O)c1cn(C)nc1C(F)(F)F)Nc1n[nH]c2cncc(F)c12 (stereo not shown) [Compound A-142],> 16,–,5 to 16
CSc1ccc(N/C(=N\C(=O)c2cn(C)nc2C(F)(F)F)Nc2cc(-c3ccc(O)cc3F)n[nH]2)cc1 [Compound A-8],5 to 16,< 5,–
COCC(C)NC(=NC(=O)c1cc(C)nn1C)Nc1cc(-c2ccc(Cl)cc2)n[nH]1 (stereo not shown) [Compound A-67],< 5,–,5 to 16
Cn1cc(C(=O)/N=C(/Nc2ccc(F)c(Cl)c2)Nc2cc(-c3ccc(O)c(F)c3)n[nH]2)c(C(F)(F)F)n1 [Compound A-163],< 5,< 5,–
CCOC(=O)NC1CCC(N/C(=N\C(=O)c2cc(C)oc2C(F)(F)F)Nc2ccccc2C(F)(F)F)CC1 (stereo not shown) [Compound A-214],< 5,–,> 16
Cc1cc(F)ccc1N/C(=N/C(=O)c1cn(C)nc1C(F)(F)F)Nc1cc(-c2ccc(O)c(F)c2)n[nH]1 [Compound A-173],< 5,< 5,–
Cc1ccc(-c2cc(N/C(=N\C(=O)c3cnoc3C)NC(C)(C)C)[nH]n2)cc1F [Compound A-93],< 5,< 5,–
COc1ccc(-c2cc(N/C(=N\C(=O)c3cn(C)nc3C(F)(F)F)Nc3cc(F)cc(Cl)c3)n[nH]2)cc1F [Compound A-131],< 5,> 16,–
